Tested on: Her2
Test: Her2 degradation in BT-474 cells by Western blot (Method 1)
Format: cell-based, Human
Details: 0.5 μM, overnight
Method: Human high-Her2 breast carcinoma BT474 (HTB-20), SK-BR-3 (HTB-30) and MCF-7 breast carcinoma (HTB-22) from American Type Culture Collection, Va., USA were grown in Dulbecco's modified Eagle's medium with 4 mM L-glutamine and antibiotics (100 IU/ml penicillin and 100 μg/ml streptomycine; GibcoBRL). To obtain exponential cell growth, cells were trypsinized, counted and seeded at a cell density of 0.5×10^6 cells/ml regularly, every 3 days. All experiments were performed on day 1 after cell passage.
BT-474 cells are treated with 0.5 μM, 2 μM, or 5 μM of 17AAG (a positive control) or 0.5 μM, 2 μM, or 5 μM of a compound of the invention overnight in DMEM medium. After treatment, each cytoplasmic sample is prepared from 1×10^6 cells by incubation of cell lysis buffer (#9803, Cell Signaling Technology) on ice for 10 minutes. The resulting supernatant used as the cytosol fractions is dissolved with sample buffer for SDS-PAGE and run on a SDS-PAGE gel, blotted onto a nitrocellulose membrane by using semi-dry transfer. Non-specific binding to nitrocellulose is blocked with 5% skim milk in TBS with 0.5% Tween at room temperature for 1 hour, then probed with anti-Her2/ErB2 mAb (rabbit IgG, #2242, Cell Signaling) and anti-Tubulin (T9026, Sigma) as housekeeping control protein. […]

Structure (SMILES): C=CCNC1=C2C[C@@H](C)C[C@H](OC)[C@H](O)[C@@H](C)/C=C(\C)[C@H](OC(N)=O)[C@@H](OC)/C=C\C=C(/C)C(=O)NC(=CC1=O)C2=O [Compound 17AAG, 17-allylamino-17-demethoxygeldanamycin]
- degradation of Her2: partial degradation of Her2
